The values below come from patent publication US8354522B2, “Immunostimulatory oligoribonucleotides” (Coley Pharmaceutical GmbH, priority 2005, dated 2013).

One data set deals with isolated pDC. In words: IFN-alpha production upon isolated pDC stimulation. It counts as cell-based, human. The following applies: 0.5 μM ORN complexed to 10 μg/ml DOTAP, 16 h. As for the experimental part: FIG. 2 is a set of bar graphs depicting ORN induced cytokine production upon isolated pDC (FIG. 2a), monocytes (FIG. 2b) and mDC (FIG. 2c) stimulation. Cells were stimulated with 0.5 μM ORN complexed to 10 μg/ml DOTAP, 0.5 μM CpG ODN or DOTAP or media alone and IFN-alpha (FIG. 2a), TNF-alpha […] and IL-12p40 (FIG. 2c) were measured.
A similar assay testing different ORN sequences was performed using isolated pDC, monocytes and mDC stimulation. Cells were stimulated with 0.5 μM ORN complexed to 10 μg/ml DOTAP, 0.5 μM CpG ODN or DOTAP or media alone. After 16 h the supernatants were harvested and IFN-alpha, TNF-alpha and IL-12p40 levels were measured by ELISA.

The test system of another data set is Bovine PBMC. In words: Cytokine production by bovine PBMC (48 hours, ELISA). It is filed as cell-based. As to conditions: 10 μg/ml (H.D.) and 2.5 μg/ml (L.D.). As to the method: FIG. 11 is a set of bar graphs showing differences between TLR8 ORN (SEQ ID NO:13) and TLR7/8 ORN (SEQ ID NO:21). SEQ ID NO:5 ORN was used as a control. Bovine PBMC were incubated with either 10 μg/ml ORN (HD) or 2.5 μg/ml ORN (LD) for 48 hours. Supernatants were collected and analyzed by ELISA. FIGS. 11a-c show the level of IL-12, IFN-γ, and TNF-alpha, respectively.
The assay was repeated with a TLR8 ORN (SEQ ID NO:13), a TLR 7/8 ORN (SEQ ID NO:21) and a control ORN (SEQ ID NO:5) (Table 3) at both a high dose (H.D., 10 μg/ml) and a low dose (L.D., 2.5 μg/ml).
A general note: ELISA stands for enzyme-linked immunosorbent assay.

Data set [1] has as its system Raw264.7 cells, J774 cells, purified mouse CD11c+ cells. Kind of data set: Cytokine production by mouse cells in vitro (ELISA). It is filed as cell-based. The following applies: ORN complexed to DOTAP, 16 or 20 hours. As to the method:
(§1) Cells used were mouse macrophage cell line Raw264.7 cells (FIG. 12a), J774 cells (FIG. 12b), purified mouse CD11c+ cells (sv129 mice) (FIGS. 12c-12h) and mouse cells in vivo. Cytokine concentration was evaluated by ELISA.
(§2) Raw264.7 cells (FIG. 12a), J774 cells (FIG. 12b) and purified CD11c+ cells (Milteny, magnetic bead labeling) were isolated from sv129 mice splenocytes (FIGS. 12c-12e) and were stimulated with indicated concentrations of ORN complexed to DOTAP (50 μg/ml and diluted with ORN), R-848 or DOTAP alone (50 μg/ml). After 16 hours (FIGS. 12a and 12b) or 20 hours (FIGS. 12c-12e) supernatants were harvested and used for TNF-alpha (FIGS. 12a and 12b), IL-12p40 (FIG. 12c), IFN-alpha (FIG. 12d) and IP-10 (FIG. 12e) ELISA. Data represent one individual from at least three experiments (FIGS. 12a and 12b) and mean of 3 mice (FIGS. 12c-12e). To measure the ability of AU-rich ORN to stimulate mouse cells in vivo, sv129 mice (n=5/group) were injected with the indicated amounts of ORN formulated with DOTAP (60, 20 or 6 μg/ml), and bled after 3 hours. IL-12p40 (FIG. 12f), IFN-alpha (FIG. 12g) and IP-10 (FIG. 12h) production was measured within whole blood by ELISA.

In another data set the test system is Human PBMC. In words: Cytokine production upon human PBMC stimulation (ORN complexed to DOTAP, 16 h, ELISA). The arrangement: key to IFN-alpha / TNF-alpha: +: cytokine production; −: no cytokine production. As to conditions: for IFN-alpha / TNF-alpha: human PBMC stimulated for 16 h, supernatant ELISA. It is filed as cell-based. The method, boiled down:
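Healthy-donor PBMCs were stimulated for 16 h with ORN complexed to DOTAP (25 μg/ml), titrated in 7 steps of 1/3 from 2 μM (to 0.9 nM). IFN-alpha and TNF-alpha in supernatants were measured by ELISA. Mean/max activity at 0.6 μM and EC50 came from 3-6 donors over two experiments.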

For the next data set, the system named is sv129 mice. In words: Cytokine production in sv129 mice in vivo (whole blood ELISA, 3 hours). The arrangement: species or system mouse. As to conditions: ORN formulated with DOTAP, bled after 3 hours. As for the experimental part: as §1, §2
The subject of data set [2] is Splenocytes from 3 Sprague-Dawley rats. Kind of data set: TNF-alpha production by rat splenocytes (ELISA). It is filed as cell-based. The following applies: pooled rat splenocytes, ORN complexed to 62.5 μg/ml DOTAP with 1/5 dilution, 20 hours. As for the experimental part:
Splenocytes from 3 Sprague-Dawley rats were pooled and stimulated with indicated concentrations of SEQ ID NO:21, SEQ ID NO:13 (both complexed to 62.5 μg/ml DOTAP with 1/5 dilution), R-848 or DOTAP alone (62.5 μg/ml->1/5 dilution). Supernatants were harvested after 20 hours and TNF-alpha levels were measured by ELISA.

Entries after “also recorded” stand apart in the source; their conditions may differ.

With “U*U*A*U*U*A*U*U*A*U*U*A*U*U*A*U*U*A*U*U (UUAUUAUUAUUAUUAUUAUU; chemistry not fully specified) [SEQ ID NO: 13]”, the “IFN-alpha production upon pDC stimulation (in words)” value in the data set with isolated pDC was “strongly reduced IFN-alpha production; also recorded: no IFN-alpha cytokine production”. Moreover, the IFN-γ production result in the data set on Bovine PBMC was “stimulated production of IFN-γ”. Further, the “response of mouse macrophages/cells in vitro (TNF-alpha, IL-12p40, IFN-alpha, IP-10)” value in data set [1] is “do not Respond”. In addition, the “IFN-alpha production upon PBMC stimulation (in words)” value in the data set with Human PBMC (human PBMC) is “no IFN-alpha cytokine production”. In the data set with Human PBMC, the IFN-alpha result was “−” and the TNF-alpha entry was “+”. Moreover, the “response of mouse cells in vivo (IL-12p40, IFN-alpha, IP-10 in whole blood)” value in the data set on sv129 mice is on record as “do not Respond”. Moreover, the TNF-alpha production result in data set [2] was “no TNF-alpha production”.

As for “U*U*G*U*U*G*U*U*G*U*U*G*U*U*G*U*U*G*U*U (UUGUUGUUGUUGUUGUUGUU; listed as RNA, chemistry not fully specified) [SEQ ID NO: 21]”, in the data set on Bovine PBMC, the IFN-γ production entry is recorded as “stimulated production of IFN-γ”; the IL-12 production result is “significant production of IL-12 and TNF-alpha”; the TNF-alpha production result was “significant production of IL-12 and TNF-alpha”. Further, in the data set on Human PBMC, the IFN-alpha result is “+” and the TNF-alpha result is reported as “+”. In addition, in data set [2], the TNF-alpha production result is on record as “resulted in TNF-alpha production”.
